In patent US20130303788A1, “METHOD OF PRODUCING BIPHENOLIC COMPOUND, NOVEL BIPHENYL COMPOUND AND SYNTHESIS METHOD THEREOF, AND PHARMACEUTICAL COMPOSITION FOR TREATING PARKINSON'S DISEASE” (Tzu Chi University, priority 2012, published 2013):

Experiments:
[1] = system: SH-SY5Y human neuroblastoma cells; test: Effects on oxidative stress (TBHP or CHP), MTT assay; type: cell-based; details: for prevention of cell death (relative cell viability) after exposure to CHP / prevention of cell death (relative cell viability) after exposure to TBHP: 10 μM for 30 minutes, vs pathological control, FIG. 9; for prevention of cell death (relative cell viability) after exposure to CHP: then CHP 300 μM for 3 hours; for prevention of cell death (relative cell viability) after exposure to TBHP: then TBHP 300 μM for 3 hours
Protocol: (§1) 3-(4,5-Dimethylthiazol-2-yl)-2,5-diphenyltetrazolium bromide (MTT) assay was conducted generally as follows. A MTT solution was added to culture of the cells in the respective well so that a MTT concentration of 0.5 mg/mL was reached, followed by cultivation for 4 hours. The liquid in the respective well was removed, and dimethylsulfoxide (DMSO) was added into the respective well to dissolve formazan dye. Absorbance of the mixture in the respective well at 570 nm (OD570) was measured using an OPTImax microplate reader (Molecular Devices).
The SH-SY5Y human neuroblastoma cells were respectively treated with products 1, 2, 3, 4, 5, 7, and 3,3′-diallyl-biphenyl-4,4′-diol (compound 55) (10 μM) for 30 minutes. 3,3′-diallyl-biphenyl-4,4′-diol (compound 55) was prepared from commercially available 4,4′-biphenol (compound 54) generally according to the method as described in Ablard, F. et al., Bioorg. Med. Chem. Lett. 2007, 17, 4428. Subsequently, the SH-SY5Y human neuroblastoma cells were exposed to cumene hydroperoxide (CHP) or tert-butyl hydroperoxide (TBHP) (300 μM, Riedel-de Haen) for 3 hours after the treatment with the respective biphenolic compound of formula (I).
(§2) Cell viability was evaluated as follows. The SH-SY5Y human neuroblastoma cells were subjected to the MTT assay as described in section 1 of General Procedures. The relative cell viability (%) was calculated by substituting the absorbance into the following formula:
where D=relative cell viability • E=OD570 of the pathological control, or the SH-SY5Y human neuroblastoma cells treated with the respective biphenolic compound of formula (I) • F=OD570 of the normal control The obtained data were subjected to the statistical analysis as described in section 5 of General Procedures.

inflammatory pain = details: Lin Yi-Ruu et al. (2007); cited from earlier work
[2] = system: excitotoxicity induced by excitatory amino acids; details: Lin Yi-Ruu et al. (2006); cited from earlier work
[3] = system: SH-SY5Y human neuroblastoma cells; test: Effects on MPP+ neurotoxicity, MTT assay; type: cell-based; details: 10 μM or 30 μM; MPP+ 1 mM for 24 hours; FIG. 10
Protocol: as §1
SH-SY5Y human neuroblastoma cells were exposed to neurotoxic 1-methyl-4-phenylpyridinium (MPP^+) (1 mM) for 24 hours, while the same were treated with the respective one of products 1, 2, 3, 4, 5, 7, and 3,3′-diallyl-biphenyl-4,4′-diol (compound 55) (10 μM or 30 μM).
as §2
where G=relative cell viability • H=OD570 of the pathological control, or the SH-SY5Y human neuroblastoma cells treated with the respective biphenolic compound of formula (I) • I=OD570 of the normal control The obtained data were subjected to the statistical analysis as described in section 5 of General Procedures.

[4] = system: mouse model of PD (6-OHDA unilateral striatal lesion); test: Apomorphine-induced rotation test in 6-OHDA mouse model of PD; type: in vivo, NMRI mice
Protocol: The respective NMRI mouse was anesthetized with ketamine ([…], intraperitoneally). Subsequently, the respective NMRI mouse was placed into a stereotactic frame with nose and ear bars specially designed for mice. 6-hydroxydopamine (6-OHDA) was injected with saline containing 0.02% ascorbic acid (as a vehicle) into the right striatum of the respective NMRI mouse so that unilateral striatal lesion was induced (i.e., damage to dopaminergic neurons in the unilateral striatum was induced). The injection was conducted at a rate of 1 μL/minute using a Hamilton syringe at the following coordinates: AP: −0.9 mm; ML: −1.9 mm; DV: −2.2 mm with respect to bregma, and a final dose of 15 μg was administered. The needle was left standing for 5 minutes after the injection was finished, and was slowly withdrawn.
The respective NMRI mouse was allowed to habituate to the ambient environment for 10 minutes before the apomorphine-induced rotation test was performed. Apomorphine was then injected intraperitoneally into the respective NMRI mouse at a dose of 0.5 mg/kg. The respective NMRI mouse was placed in a glass bowl with a diameter of 20 cm and was attached to an automatic rotometer (TSE, Bad Homburg, Germany) via a specially designed harness. Each circular movement exceeding 30° was recorded. The contralateral movements (toward the nonlesioned side) and ipsilateral movements (toward the lesioned side) of the NMRI mice were counted during a period of 60 minutes. The net rotation was calculated according to the following formula:
where A=net rotation • B=the total number of ipsilateral movements during the period of 60 minutes • C=the total number of contralateral movements during the period of 60 minutes 4. Determination of TH (Tyrosine Hydroxylase) Expression Level and iNOS (Inducible Nitric Oxide Synthase) Expression Level: […]
6-OHDA was injected into NMRI mice according to the method as described in section 2 of General procedures. Product 1 or product 2 was administered intraperitoneally to the respective NMRI mouse at a dose of 5 mg/kg, 1 mg/kg, 0.5 mg/kg, 0.1 mg/kg, or 0.05 mg/kg for 14 consecutive days, starting on Day 7 after the 6-OHDA injection. NMRI mice into which a vehicle (saline containing 0.02% ascorbic acid) was injected (generally according to the method as described in section 2 of General Procedures, except that 6-OHDA was not injected), and which were not treated with product 1 or product 2 after the injection of the vehicle, served as a sham operated control. NMRI mice into which 6-OHDA was injected and which were not treated with product 1 or product 2 after the 6-OHDA injection served as a pathological control. The rotational behavior of the NMRI mice was evaluated using the apomorphine-induced rotation test as described in section 3 of General Procedures on Days 7, 14, and 21 after the 6-OHDA injection.

[5] = system: TH (Tyrosine Hydroxylase); test: TH expression level (TH immunohistochemistry) in 6-OHDA mouse model of PD; type: in vivo, NMRI mice; details: i.p. 14 consecutive days starting Day 7, Day 21 after 6-OHDA, 16
Protocol: The respective NMRI mouse was deeply anaesthetized with thiopental (50 mg/kg, intraperitoneally). The respective NMRI mouse was perfused transcardially with a heparin solution (0.05% heparin in 0.1 M PBS), and was subsequently perfused with 100 mL of ice-cold fixative (4% paraformaldehyde in 0.1 M PBS). The brain of the respective NMRI mouse was removed and was postfixed in the same ice-cold fixative for 12 hours, followed by dehydration in 30% sucrose in 0.1 M PBS. The brain was frozen and was subjected to tissue slicing. Serial coronal sections (a thickness of 20 μm) were cut on a freezing microtome and were placed in PBS. The sections were later processed for free-floating TH or iNOS immunohistochemistry.
The sections were rinsed three times with PBS (30 minutes for each time), were treated with 3% H2O2/10% methanol in PBS for 30 minutes for quenching the endogenous peroxidase activity, and were rinsed three times with PBS. After preincubation with 0.5% normal goat serum (NGS)/0.2% Triton in PBS, the sections were incubated with a primary antibody (anti-TH antibody or anti-iNOS antibody, 1:5000, Novus Biologicals, Inc., Littleton, Colo., USA) in 0.5% NGS/PBS at 4° C. for 16-18 hours. After being rinsed three times with PBS, the sections were incubated with a biotinylated goat anti-rabbit IgG (1:200) in PBS for 1 hour. Subsequently, the sections were rinsed three times with PBS and were stained with 0.05% diaminobenzidine/0.03% H2O2 in PBS for 5 minutes. The respective section was placed on a gelatin-coated slide, dehydrated through ascending concentrations of alcohol, and covered with a slipcover for observation under a light microscope.
The obtained data were subjected to the statistical analysis as described in section 5 of General Procedures. TH expression level in the striatum was determined according to the method as described in section 4 of General Procedures.
TH expression level in the striatum and the substantia nigra (SN), and iNOS expression level in the striatum were determined according to the method as described in section 4 of General Procedures on Day 21 after the injection of 6-OHDA or the vehicle.
In addition, the optical density regarding the lesioned and unlesioned sites in the striatum and SN of the NMRI mice (e.g., the sham operated control, the pathological control, and the NMRI mice treated with product 1) was determined from the obtained photomicrographs illustrating TH expression level via ImageJ software (National Institutes of Health). The relative optical density was calculated using the following formula:
where J=relative optical density • K=optical density of the lesioned site • L=optical density of the unlesioned site

## C=CCc1cc(-c2ccc(O)c(CC=C)c2)ccc1O [compound 55, 3,3′-diallyl-biphenyl-4,4′-diol]
[1]
  prevention of cell death (relative cell viability) after exposure to CHP: significantly prevented cell death
  prevention of cell death (relative cell viability) after exposure to TBHP: significantly prevented cell death

## C=CCc1ccc(O)c(-c2cc(CC=C)ccc2O)c1 [magnolol, reference compound]
Inflammatory pain
  alleviation of inflammatory pain in an animal model: effective in alleviating inflammatory pain
[2]
  neuroprotective effects via anti-oxidative abilities and antagonist actions against excitotoxicity: able to exert neuroprotective effects

## C=CCc1cc(-c2cc(CCC)ccc2O)ccc1O [product 2, 3′-Allyl-5-propyl-biphenyl-2,4′-diol]
[3]
  concentration dependence of alleviation of MPP+ cytotoxicity: alleviated the cytotoxicity of MPP^+ in a concentration-dependent manner
[1]
  prevention of cell death (relative cell viability) after exposure to CHP: significantly prevented cell death
  prevention of cell death (relative cell viability) after exposure to TBHP: significantly prevented cell death
[1]; 10 μM, CHP 300 μM 3 hours
  rank among the tested biphenolic compounds in preventing cell death, CHP: the most effective in preventing cell death among them
[1]; 10 μM, TBHP 300 μM 3 hours
  rank among the tested biphenolic compounds in preventing cell death, TBHP: the most effective in preventing cell death among them
[4]; 0.1 mg/kg i.p., 14 consecutive days starting Day 7 after 6-OHDA, FIG. 13
  unilateral rotations (apomorphine-induced), subchronic post-treatment, 0.1 mg/kg: significantly inhibited unilateral rotations
[4]; 0.5 mg/kg i.p., 14 consecutive days starting Day 7 after 6-OHDA, FIG. 13
  unilateral rotations (apomorphine-induced), subchronic post-treatment, 0.5 mg/kg: significantly inhibited unilateral rotations
[4]; 1 mg/kg i.p., 14 consecutive days starting Day 7 after 6-OHDA, FIG. 13
  unilateral rotations (apomorphine-induced), subchronic post-treatment, 1 mg/kg: significantly inhibited unilateral rotations
[4]; subchronic post-treatment, 14 days starting Day 7 after 6-OHDA
  restoring activity against neurotoxin-induced motor dysfunction compared with product 1: more potent restoring activity
[5]; FIGS. 14, 15(A)
  loss of TH-ir fibers in the striatum, subchronic post-treatment: significantly alleviated the loss of TH-ir fibers
[5]; FIGS. 14, 15(B)
  loss of TH-ir fibers in the substantia nigra (SN), subchronic post-treatment: significantly alleviated the loss of TH-ir fibers

## CCCc1ccc(O)c(-c2ccc(O)c(CCC)c2)c1 [product 3, 5,3′-Dipropyl-biphenyl-2,4′-diol]
[3]
  concentration dependence of alleviation of MPP+ cytotoxicity: alleviated the cytotoxicity of MPP^+ in a concentration-dependent manner
[1]
  prevention of cell death (relative cell viability) after exposure to CHP: significantly prevented cell death
  prevention of cell death (relative cell viability) after exposure to TBHP: significantly prevented cell death

## C=CCc1ccc(O)c(-c2ccc(O)c(CCC)c2)c1 [product 4, 5-Allyl-3′-propyl-biphenyl-2,4′-diol]
[3]
  concentration dependence of alleviation of MPP+ cytotoxicity: alleviated the cytotoxicity of MPP^+ in a concentration-dependent manner
[1]
  prevention of cell death (relative cell viability) after exposure to CHP: significantly prevented cell death
  prevention of cell death (relative cell viability) after exposure to TBHP: significantly prevented cell death

## C#CCc1ccc(O)c(-c2ccc(O)c(CC=C)c2)c1 [product 5, 3′-Allyl-5-prop-2-ynyl-biphenyl-2,4′-diol]
[3]
  concentration dependence of alleviation of MPP+ cytotoxicity: alleviated the cytotoxicity of MPP^+ in a concentration-dependent manner
[1]
  prevention of cell death (relative cell viability) after exposure to CHP: significantly prevented cell death
  prevention of cell death (relative cell viability) after exposure to TBHP: significantly prevented cell death

## C=CCc1cc(-c2cccc(O)c2CC=C)ccc1O [product 7, 2,3′-Diallyl-biphenyl-3,4′-diol]
[3]
  concentration dependence of alleviation of MPP+ cytotoxicity: alleviated the cytotoxicity of MPP^+ in a concentration-dependent manner
[1]
  prevention of cell death (relative cell viability) after exposure to CHP: significantly prevented cell death
  prevention of cell death (relative cell viability) after exposure to TBHP: significantly prevented cell death
